Results: PubChem BioAssay AID1117325 (Cheminformatics & Chemogenomics Research Group (CCRG), …, 2015)
“And” between values parts separate entries of the source, which are not always exact repeats. Equal entries are not always repeated. The source made the active and inactive calls. How the calls were made is not given here. *1 amine or outer side, *2 acyl side, *3 side chain or, on linkers, in order; H or OH if unused. Where a SMILES comes first, the peptide text is derived from it. Bridges are numbered along the chain shown (N, C = ends). Roman numbers before positions name the chains, in order. [ ]: non-standard residue; d: D form. Actinocin(9to1) = Cc1c2oc3c(C)ccc(C(=O)[*:1])c3nc-2c(C(=O)[*:2])c(N)c1=O; NMeV = CN[C@H](C(=O)O)C(C)C; Sar = CNCC(=O)O

These compounds were tested on C2C12 WNT3A-conditioned, nuclear beta-catenin (assay: activation of intranuclear CTNNB1 in the C2C12 line, dose-response, cell-based, Wnt-3a conditioned medium, half-maximal inhibitory concentration (AID 1117325)).
For `O=c1c(-c2ccccc2)c1-c1ccccc1`, the IC50 was > 20 µM (inactive). With `C[n+]1c2cc(N)ccc2cc2ccc(N)cc21` (tested in a mixture with another compound) the IC50 was > 20 µM (inactive). Compound `O=C(CCl)c1ccc(Cl)cc1Cl` has an IC50 of 0.373 µM. For `CCCCCCCCCCOCC(O)CN` (centres undefined), the IC50 was > 20 µM (inactive). `O=C(Nc1ccc([N+](=O)[O-])cc1Cl)c1cc(Cl)ccc1O` was tested, and the IC50 was 1.57 µM. For `COc1ccc2cc1Oc1ccc(cc1)C[C@H]1c3c(cc4c(c3Oc3cc5c(cc3OC)CCN(C)[C@@H]5C2)OCO4)CCN1C`, the IC50 was 5.63 µM (inactive). `COc1cccc2c1C(=O)c1c(O)c3c(c(O)c1C2=O)C[C@@](O)(C(=O)CO)CC3OC1CC(N2CCOC(OC)C2)C(O)C(C)O1` (some centres undefined) was tested, and the IC50 was 0.0135 µM. For `O=C1C(I)=CC(=C(c2cc(I)c(O)c(I)c2)c2ccccc2C(=O)O)C=C1I`, the IC50 was > 20 µM (inactive). In the case of `CN1CC[C@H](c2c(O)cc(O)c3c(=O)cc(-c4ccccc4Cl)oc23)[C@H](O)C1`, the IC50 is reported as 0.19 µM. Work on `CC(=O)O[C@@]12CO[C@@H]1C[C@H](O)[C@@]1(C)C(=O)[C@H](O)C3=C(C)[C@@H](OC(=O)[C@H](O)[C@@H](NC(=O)OC(C)(C)C)c4ccccc4)C[C@@](O)([C@@H](OC(=O)c4ccccc4)[C@H]21)C3(C)C` yielded an IC50 of 0.0652 µM. For `C[C@@]12C(=O)OC(=O)[C@]1(C)C1CCC2O1`, the IC50 was > 20 µM (inactive). For `CCCCCCCCCCCCCC[N+](C)(C)C`, the IC50 was > 20 µM (inactive). `COc1cccc2c1C(=O)c1c(O)c3c(c(O)c1C2=O)C[C@@](O)(C(C)=O)C[C@@H]3O[C@H]1C[C@H](N)[C@H](O)[C@H](C)O1` gave an IC50 of 0.369 µM. `CCN(CC)CCNc1ccc(CO)c2sc3ccccc3c(=O)c12` was tested, and the IC50 was > 20 µM (inactive). In the case of `COc1cc([C@@H]2c3cc4c(cc3[C@@H](O[C@@H]3O[C@@H]5CO[C@@H](C)O[C@@H]5[C@H](O)[C@@H]3O)[C@H]3COC(=O)[C@H]23)OCO4)cc(OC)c1O`, the IC50 is reported as > 20 µM (inactive). `CCCCCCCCCCCCNCCNCCNCC(=O)O` was tested, and the IC50 was > 20 µM (inactive). In the case of `COC(=O)Nc1nc2ccc(C(=O)C3CC3)cc2[nH]1`, the IC50 is reported as 0.349 µM. In the case of `C=C(C)[C@H]1Cc2c(ccc3c2O[C@@H]2COc4cc(OC)c(OC)cc4[C@@H]2C3=O)O1`, the IC50 is reported as 2.99 µM. `Cc1nc(N)nc(N)c1-c1ccc(Cl)c(Cl)c1` was tested, and the IC50 was 0.0504 µM. In the case of `Oc1c(I)cc(Cl)c2cccnc12`, the IC50 is reported as > 20 µM (inactive). In the case of `CCCCCCCCCCCC(=O)[O][Sn]([CH2]CCC)([CH2]CCC)[O]C(=O)CCCCCCCCCCC`, the IC50 is reported as > 20 µM (inactive). `CN(Cc1cnc2nc(N)nc(N)c2n1)c1ccc(C(=O)N[C@@H](CCC(=O)O)C(=O)O)cc1` showed an IC50 of 0.0265 µM. For `Oc1c(Cl)cc(Cl)cc1Sc1cc(Cl)cc(Cl)c1O`, the IC50 was > 20 µM (inactive). For `COc1cccc2c1C(=O)c1c(O)c3c(c(O)c1C2=O)C[C@@](O)(C(=O)CO)C[C@@H]3O[C@H]1C[C@H](N)[C@H](O[C@@H]2CCCCO2)[C@H](C)O1`, the IC50 was > 20 µM (inactive). `O=C1c2c(O)ccc(O)c2C(=O)c2c(NCCNCCO)ccc(NCCNCCO)c21` gave an IC50 of 0.0303 µM. Work on `CCCSc1ccc2nc(NC(=O)OC)[nH]c2c1` yielded an IC50 of 1.28 µM. `CSc1ccc2c(c1)C(N1CCN(C)CC1)Cc1ccccc1S2` (centres undefined) was tested, and the IC50 was > 20 µM (inactive). `CN(C)c1ccc(C(=C2C=CC(=[N+](C)C)C=C2)c2ccccc2)cc1` was tested, and the IC50 was > 20 µM (inactive). `CN(C)C(=S)SSC(=S)N(C)C` was tested, and the IC50 was > 20 µM (inactive). For `O[C@@H](c1cc(C(F)(F)F)nc2c(C(F)(F)F)cccc12)[C@H]1CCCCN1`, the IC50 was > 20 µM (inactive). With `OCCN1CCN(CCCN2c3ccccc3Sc3ccc(Cl)cc32)CC1` the IC50 was > 20 µM (inactive). `Cc1c2oc3c(C)ccc(C(=O)N[C@@H]4C(=O)N[C@H](C(C)C)C(=O)N5CCC[C@H]5C(=O)N(C)CC(=O)N(C)[C@@H](C(C)C)C(=O)O[C@@H]4C)c3nc-2c(C(=O)N[C@@H]2C(=O)N[C@H](C(C)C)C(=O)N3CCC[C@H]3C(=O)N(C)CC(=O)N(C)[C@@H](C(C)C)C(=O)O[C@@H]2C)c(N)c1=O` (I: T[dV]P[Sar][NMeV] / II: T[dV]P[Sar][NMeV]; ester I:1-I:C, II:1-II:C; linker I:N-II:N via Actinocin(9to1)) gave an IC50 of 0.037 µM. `Cc1cc(C2CCCCC2)n(O)c(=O)c1` was tested, and the IC50 was > 20 µM (inactive). For `Nc1ccc2cc3ccc(N)cc3nc2c1`, the IC50 was 5.99 µM (inactive). In the case of `Cc1ccc2c(Br)cc(Br)c(O)c2n1`, the IC50 is reported as > 20 µM (inactive). With `Cc1ccc([N+](=O)[O-])[c]2c1[O][Hg]2` the IC50 was 1.51 µM. With `c1ccc2c(c1)Sc1ccccc1N2CC1CN2CCC1CC2` (centres undefined) the IC50 was > 20 µM (inactive). `Cc1cc2c(C(C)C)c(O)c(O)c(C=O)c2c(O)c1-c1c(C)cc2c(C(C)C)c(O)c(O)c(C=O)c2c1O` showed an IC50 of 3.49 µM. For `Clc1cc(Cl)c(OCC#CI)cc1Cl`, the IC50 was > 20 µM (inactive). `CCCN(CCC)C(=O)C(CCC(=O)OCCCN1CCN(CCOC(=O)Cc2c(C)n(C(=O)c3ccc(Cl)cc3)c3ccc(OC)cc23)CC1)NC(=O)c1ccccc1` (centres undefined) was tested, and the IC50 was > 20 µM (inactive). For `O=[N+]([O-])c1ccc(O)c2ncccc12`, the IC50 was > 20 µM (inactive). `COC(=O)Nc1nc2ccc(Sc3ccccc3)cc2[nH]1` showed an IC50 of 4.84 µM. `CCC1=C[C@@H]2CN(C1)Cc1c([nH]c3ccccc13)[C@@](C(=O)OC)(c1cc3c(cc1OC)N(C)[C@H]1[C@@](O)(C(=O)OC)[C@H](OC(C)=O)[C@]4(CC)C=CCN5CC[C@]31[C@@H]54)C2` gave an IC50 of 0.0089 µM. With `Cc1cc(CC(C)CC(C)(C)C)n(O)c(=O)c1` (centres undefined) the IC50 was 0.591 µM. Work on `COc1cc([C@@H]2c3cc4c(cc3[C@H](O)[C@H]3COC(=O)[C@H]23)OCO4)cc(OC)c1OC` yielded an IC50 of 0.0131 µM. For `CCCCC1C(=O)N(c2ccccc2)N(c2ccc(O)cc2)C1=O` (centres undefined), the IC50 was > 20 µM (inactive). `Cc1nc2ccc(CN(C)c3ccc(C(=O)N[C@@H](CCC(=O)O)C(=O)O)s3)cc2c(=O)[nH]1` was tested, and the IC50 was 0.0127 µM. `CN1C[C@H](CNC(=O)OCc2ccccc2)C[C@@H]2c3cccc4c3c(cn4C)C[C@H]21` was tested, and the IC50 was > 20 µM (inactive). In the case of `CC[C@]1(O)C[C@@H]2CN(CCc3c([nH]c4ccccc34)[C@@](C(=O)OC)(c3cc4c(cc3OC)N(C)[C@H]3[C@@](O)(C(=O)OC)[C@H](OC(C)=O)[C@]5(CC)C=CCN6CC[C@]43[C@@H]65)C2)C1`, the IC50 is reported as 0.0035 µM and 0.0058 µM. For `CC[C@@]1(O)C(=O)OCc2c1cc1n(c2=O)Cc2cc3c(CN(C)C)c(O)ccc3nc2-1`, the IC50 was 0.134 µM. In the case of `CC[C@@H]([C@H](C)O)n1ncn(-c2ccc(N3CCN(c4ccc(OC[C@@H]5CO[C@@](Cn6cncn6)(c6ccc(F)cc6F)C5)cc4)CC3)cc2)c1=O`, the IC50 is reported as 5.29 µM (inactive). In the case of `CC(=O)[C@]1(O)Cc2c(O)c3c(c(O)c2[C@@H](O[C@H]2C[C@H](N)[C@H](O)[C@H](C)O2)C1)C(=O)c1ccccc1C3=O`, the IC50 is reported as 0.1 µM. With `NC(N)=NN=C(/C=C/c1ccc([N+](=O)[O-])o1)/C=C/c1ccc([N+](=O)[O-])o1` the IC50 was > 20 µM (inactive). `CCCOc1ccc2nc(NC(=O)OC)[nH]c2c1` gave an IC50 of 0.365 µM. `COC(=O)[C@H]1[C@H]2C[C@@H]3c4[nH]c5cc(OC)ccc5c4CCN3C[C@H]2C[C@@H](OC(=O)/C=C/c2ccc(O)c(OC)c2)[C@@H]1OC` was tested, and the IC50 was > 20 µM (inactive). `COc1cc(C=C2CCC/C(=C\c3ccc(O)c(OC)c3)C2=O)ccc1O` was tested, and the IC50 was 5.04 µM (inactive). `Cc1nc(Nc2ncc(C(=O)Nc3c(C)cccc3Cl)s2)cc(N2CCN(CCO)CC2)n1` gave an IC50 of 0.104 µM. For `CCCCCCCCCCCCCCC[C@H](O)[C@@H](N)CO`, the IC50 was > 20 µM (inactive). For `O=C1OC2(c3cc(Br)c(O)cc3Oc3c2cc(Br)c(O)[c]3[Hg])c2ccccc21` (centres undefined), the IC50 was 16.9 µM (inactive). With `O=C1C2CC=CCC2C(=O)N1SC(Cl)(Cl)Cl` (centres undefined) the IC50 was > 20 µM (inactive). For `COc1cc(NCc2ccc3nc(N)nc(N)c3c2C)cc(OC)c1OC`, the IC50 was 0.0033 µM. `CCCCCCNC(=O)n1cc(F)c(=O)[nH]c1=O` gave an IC50 of 4.98 µM. Work on `CC(C)(C)C(=O)OCOP(=O)(COCCn1cnc2c(N)ncnc21)OCOC(=O)C(C)(C)C` yielded an IC50 of 0.704 µM. `CCCCc1ccc2nc(NC(=O)OC)[nH]c2c1` was tested, and the IC50 was 0.0336 µM. In the case of `COCc1c(C(C)C)nc(C(C)C)c(/C=C/[C@@H](O)C[C@@H](O)CC(=O)O)c1-c1ccc(F)cc1`, the IC50 is reported as 6.67 µM (inactive). `Cc1ccc2nc(N)[nH]c(=O)c2c1Sc1ccncc1` was tested, and the IC50 was 0.71 µM. In the case of `C=CC(=O)Nc1cc2c(Nc3ccc(F)c(Cl)c3)ncnc2cc1OCCCN1CCOCC1`, the IC50 is reported as 1 µM. `CC[C@@]1(O)C(=O)OCc2c1cc1n(c2=O)Cc2c-1nc1ccccc1c2/C=N/OC(C)(C)C` showed an IC50 of 1.16 µM. In the case of `O=[N+]([O-])C(Br)(CO)CO`, the IC50 is reported as > 20 µM (inactive). For `Cc1ccccc1C(=O)Nc1ccc(C(=O)N2CCCC(N(C)C)c3ccccc32)cc1` (centres undefined), the IC50 was 4.56 µM. `COC(=O)c1nc(Cl)c(Cl)nc1N` showed an IC50 of 0.308 µM. With `Cc1cc(=O)c2c(O)c3c(O)cc(=O)c4c3c3c(cc(O)c1c23)C(C)(C)C=4O` the IC50 was 1.07 µM. `C#C[C@]1(O)CC[C@H]2[C@@H]3CCc4cc(OC5CCCC5)ccc4[C@H]3CC[C@@]21C` was tested, and the IC50 was > 20 µM (inactive). Work on `COC(=O)Nc1nc2ccc(C(=O)c3cccs3)cc2[nH]1` yielded an IC50 of 0.235 µM. `Cc1cc(O)c2ccccc2c1O` gave an IC50 of 4.39 µM. With `CCCCCCCCCCCCCC[N+](C)(C)Cc1ccccc1` the IC50 was > 20 µM (inactive). `[O-][n+]1ccccc1SSc1cccc[n+]1[O-]` was tested, and the IC50 was 0.991 µM. `CC[C@]1(O)C[C@H]2CN(CCc3c([nH]c4ccccc34)[C@@](C(=O)OC)(c3cc4c(cc3OC)N(C=O)[C@H]3[C@@](O)(C(=O)OC)[C@H](OC(C)=O)[C@]5(CC)C=CCN6CC[C@]43[C@@H]65)C2)C1` gave an IC50 of 0.004 µM. Work on `CCc1nc(N)nc(N)c1-c1ccc(Cl)cc1` yielded an IC50 of 0.86 µM. `COC(=O)Nc1nc2ccc(C(=O)c3ccccc3)cc2[nH]1` showed an IC50 of 1.74 µM. For `CC(=O)Oc1ccc(C2(c3ccc(OC(C)=O)cc3)Oc3ccccc3NC2=O)cc1`, the IC50 was > 20 µM (inactive). Compound `CC(C)C[C@H](NC(=O)[C@H](CCc1ccccc1)NC(=O)CN1CCOCC1)C(=O)N[C@@H](Cc1ccccc1)C(=O)N[C@@H](CC(C)C)C(=O)[C@@]1(C)CO1` has an IC50 of 0.0292 µM. `NC(=NCCCCCCN=C(N)/N=C(\N)Nc1ccc(Cl)cc1)/N=C(\N)Nc1ccc(Cl)cc1` was tested, and the IC50 was > 20 µM (inactive). With `COC(=O)Nc1nc2ccc(S(=O)c3ccccc3)cc2[nH]1` (centres undefined) the IC50 was 0.468 µM.
